IC50 data for three molecules are collected here from US20090149484A1, “QUINAZOLIN-4-ONE DERIVATIVES, PROCESS FOR THEIR PREPARATION AND PHARMACEUTICAL COMPOSITIONS CONTAINING THEM” (ASTRAZENECA AB, priority 2006, published 2009).

Molecules are shown by their SMILES.

T1 sequence (P15056 whole entry V600E): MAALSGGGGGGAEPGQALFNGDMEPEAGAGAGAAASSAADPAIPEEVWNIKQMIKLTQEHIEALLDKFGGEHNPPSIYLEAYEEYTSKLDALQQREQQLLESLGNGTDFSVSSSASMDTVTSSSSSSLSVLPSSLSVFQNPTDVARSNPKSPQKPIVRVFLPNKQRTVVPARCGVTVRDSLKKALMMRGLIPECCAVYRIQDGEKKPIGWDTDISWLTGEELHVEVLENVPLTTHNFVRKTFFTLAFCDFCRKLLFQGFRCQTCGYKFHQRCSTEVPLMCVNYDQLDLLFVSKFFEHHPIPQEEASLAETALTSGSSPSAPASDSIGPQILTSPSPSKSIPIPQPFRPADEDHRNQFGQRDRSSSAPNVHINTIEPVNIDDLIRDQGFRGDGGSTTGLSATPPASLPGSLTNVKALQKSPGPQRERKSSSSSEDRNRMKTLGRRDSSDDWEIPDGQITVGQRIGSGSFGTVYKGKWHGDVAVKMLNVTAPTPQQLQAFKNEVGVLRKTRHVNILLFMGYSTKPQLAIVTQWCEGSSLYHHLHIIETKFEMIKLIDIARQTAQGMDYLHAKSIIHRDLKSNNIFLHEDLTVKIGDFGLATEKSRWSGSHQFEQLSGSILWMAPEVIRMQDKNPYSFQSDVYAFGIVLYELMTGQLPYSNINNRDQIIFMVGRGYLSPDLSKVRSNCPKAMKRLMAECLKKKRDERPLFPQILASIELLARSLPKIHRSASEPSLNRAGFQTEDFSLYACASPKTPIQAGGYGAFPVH

This assay addresses T1, His-tagged Mutant B-Raf (V600E) enzyme (MT B-Raf) (Homo sapiens, UniProt P15056, V600E).
T1 construct: purified full length His-tagged Mutant B-Raf (V600E) enzyme; made in house; host or cells: insect cells
Put plainly: B-Raf in-vitro AlphaScreen assay. In kind it is biochemical. To be noted: phosphorylation of biotinylated HIS-MEK-AVI, 0.12 nM MT B-Raf, 24 μM ATP in mix. The protocol: B-Raf in-Vitro AlphaScreen Assay
Activity of purified full length His-tagged Mutant B-Raf (V600E) enzyme (MT B-Raf) was determined in-vitro using an Amplified Luminescent Proximity Homogeneous Assay (ALPHA)(Perkin Elmer, Mass.), which measures phosphorylation of the MT B-Raf substrate, biotinylated HIS-MEK-AVI (PLAZA internal database, construct #pAZB0141), as described below. MT B-Raf was expressed in insect cells and affinity purified by Ni^+2 agarose followed by Q-Sepharose chromatography. Typical yield was 1.08 mg/ml at >90% purity. The phosphorylation of the MT B-Raf substrate in the presence and absence of the compound of interest was determined. Briefly, 5 μl of enzyme/substrate/adenosine triphosphate (ATP) mix consisting of 0.12 nM MT B-Raf, 84 nM biotinylated HIS-MEK-AVI, and 24 μM ATP in 1.2× buffer was preincubated with 2 ul of compound for 20 minutes at 25° C. Reactions were initiated with 5 μl of Metal mix consisting of 24 mM MgCl2 in 1.2× buffer and incubated at 25° C. for 60 minutes and reactions were stopped by addition of 5 μl of Detection mix consisting of 20 mM HEPES, 102 mM ethylenediamine tetraacetic acid, 1.65 mg/ml BSA, 136 mM NaCl, 3.4 nM Phospho-MEK1/2 (Ser217/221) antibody (Catalog #9121, Cell Signaling Technology, MA), 40 μg/ml Streptavidin donor beads (Perkin Elmer, MA, Catalog #6760002), and 40 μg/ml Protein A acceptor beads (Perkin Elmer, MA, Catalog #6760137). Plates were incubated at 25° C. for 18 hours in the dark. Phosphorylated substrate was detected by an EnVision plate reader (Perkin Elmer, MA) 680 nm excitation, 520-620 nm emission. Data was graphed and IC50s calculated using Excel Fit (Microsoft).
(In Alpha technology, singlet oxygen from a donor bead excites a nearby acceptor bead.)
One may read the IC50 as the concentration at which inhibition is half-maximal. Read a high IC50 as a need for much substance. In the case of `Cn1cnc2ccc(Oc3ccc(NC(=O)Nc4ccc(Cl)c(C(F)(F)F)c4)cc3)cc2c1=O` [Example 1, N-[4-Chloro-3-(trifluoromethyl)phenyl]-N′-{-4-[(3-methyl-4-oxo-3,4-dihydroquinazolin-6-yl)oxy]phenyl}urea], the half-inhibitory concentration (IC50) worked out at 287 nM.

In the case of `Cc1cc(NC(=O)Nc2ccc(Cl)c(C(F)(F)F)c2)ccc1Oc1ccc2ncn(C)c(=O)c2c1` [Example 3, N-[4-Chloro-3-(trifluoromethyl)phenyl]-N′-{3-methyl-4-[(3-methyl-4-oxo-3,4-dihydroquinazolin-6-yl)oxy]phenyl}urea], half-maximal inhibition (IC50) was put at 205 nM.

For `Cn1cnc2ccc(Oc3ccc(NC(=O)Nc4cccc(C(F)(F)F)c4F)cc3)cc2c1=O` [Example 7, N-[2-Fluoro-3-(trifluoromethyl)phenyl]-N′-{4-[(3-methyl-4-oxo-3,4-dihydroquinazolin-6-yl)oxy]phenyl}urea], the IC50 came to 340 nM.
